PubChem BioAssay AID1963870 (Molecular Pharmacology Branch, DTP, NCI, 2024)

System: 292921-168-R-J2-PDC KRAS tumor spheroid viability
Assay: Anticancer human tumor 292921-168-R-J2-PDC patient-derived pancreatic carcinoma cell line growth inhibition [KRAS2]
Conditions: spheroids with HUVEC and MSC; for IC50: curve of first compound; for viability, T/C: stronger effect = lower value
Summary of the method: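 Combination screen of spheroid viability in tumor-cell co-cultures with endothelial (HUVEC) and mesenchymal stem cell stroma. Each agent was tested in half-log dilutions, topping at clinical Cmax or at 10 microM without a known Cmax.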

[1] = second compound 0.1 µM, first compound 0.0316 µM
[2] = second compound 0.1 µM, first compound 0.1 µM
[3] = second compound 0.1 µM, first compound 0.316 µM
[4] = second compound 0.1 µM, first compound 1 µM
[5] = second compound 0.1 µM, first compound 3.16 µM
[6] = second compound 0.1 µM, first compound 10 µM
[7] = second compound 0.316 µM, first compound 0.0316 µM
[8] = second compound 0.316 µM, first compound 0.1 µM
[9] = second compound 0.316 µM, first compound 0.316 µM
[10] = second compound 0.316 µM, first compound 1 µM
[11] = second compound 0.316 µM, first compound 3.16 µM
[12] = second compound 0.316 µM, first compound 10 µM
[13] = second compound 1 µM, first compound 0.0316 µM
[14] = second compound 1 µM, first compound 0.1 µM
[15] = second compound 1 µM, first compound 0.316 µM
[16] = second compound 1 µM, first compound 1 µM
[17] = second compound 1 µM, first compound 3.16 µM
[18] = second compound 1 µM, first compound 10 µM
[19] = second compound 3.16 µM, first compound 0.0316 µM
[20] = second compound 3.16 µM, first compound 0.1 µM
[21] = second compound 3.16 µM, first compound 0.316 µM
[22] = second compound 3.16 µM, first compound 1 µM
[23] = second compound 3.16 µM, first compound 3.16 µM
[24] = second compound 3.16 µM, first compound 10 µM
[25] = second compound 10 µM, first compound 0.0316 µM
[26] = second compound 10 µM, first compound 0.1 µM
[27] = second compound 10 µM, first compound 0.316 µM
[28] = second compound 10 µM, first compound 1 µM
[29] = second compound 10 µM, first compound 3.16 µM
[30] = second compound 10 µM, first compound 10 µM
[31] = second compound 0.1 µM, first compound 0.000316 µM
[32] = second compound 0.1 µM, first compound 0.001 µM
[33] = second compound 0.1 µM, first compound 0.00316 µM
[34] = second compound 0.1 µM, first compound 0.01 µM
[35] = second compound 0.316 µM, first compound 0.000316 µM
[36] = second compound 0.316 µM, first compound 0.001 µM
[37] = second compound 0.316 µM, first compound 0.00316 µM
[38] = second compound 0.316 µM, first compound 0.01 µM
[39] = second compound 1 µM, first compound 0.000316 µM
[40] = second compound 1 µM, first compound 0.001 µM
[41] = second compound 1 µM, first compound 0.00316 µM
[42] = second compound 1 µM, first compound 0.01 µM
[43] = second compound 3.16 µM, first compound 0.000316 µM
[44] = second compound 3.16 µM, first compound 0.001 µM
[45] = second compound 3.16 µM, first compound 0.00316 µM
[46] = second compound 3.16 µM, first compound 0.01 µM
[47] = second compound 10 µM, first compound 0.000316 µM
[48] = second compound 10 µM, first compound 0.001 µM
[49] = second compound 10 µM, first compound 0.00316 µM
[50] = second compound 10 µM, first compound 0.01 µM
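Also: drug exposure lasted seven days after spheroids formed for three days.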
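For viability, T/C in this document: percent of DMSO vehicle control viability which is 100%.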

`CC1OCC2(CCN(c3cnc(Sc4ccnc(N)c4Cl)c(N)n3)CC2)C1N` (stereo not given) + COc1cc2nc(C)nc(NC(C)c3cc(N)cc(C(F)(F)F)c3)c2cc1OC1CCOC1 gave an IC50 (second compound 0.1 µM) of 242 nM, an IC50 (second compound 0.316 µM) of 127 nM and an IC50 (second compound 1 µM) of 102 nM. For the same compound, the IC50 (second compound 3.16 µM) was 53 nM, the IC50 (second compound 10 µM) was less than 31.6 nM and the viability, T/C [1] was 70.2%. It also gave a viability, T/C [2] of 60.1%, a viability, T/C [3] of 46.6% and a viability, T/C [4] of 36.8%. The viability, T/C [5] was 30.2%, the viability, T/C [6] was 26.9% and the viability, T/C [7] was 69.2%. It also gave a viability, T/C [8] of 53%, a viability, T/C [9] of 39.9% and a viability, T/C [10] of 33.1%. The viability, T/C [11] was 29.2%, the viability, T/C [12] was 26.1% and the viability, T/C [13] was 62.4%. For the same compound, the viability, T/C [14] was 51%, the viability, T/C [15] was 36.1% and the viability, T/C [16] was 31.1%. For the same compound, the viability, T/C [17] was 26.3%, the viability, T/C [18] was 24.3% and the viability, T/C [19] was 56.1%. It also gave a viability, T/C [20] of 42.4%, a viability, T/C [21] of 33.5% and a viability, T/C [22] of 27.5%. It also gave a viability, T/C [23] of 23.8%, a viability, T/C [24] of 21.7% and a viability, T/C [25] of 23.1%. It also gave a viability, T/C [26] of 20.2%, a viability, T/C [27] of 17.4% and a viability, T/C [28] of 14.2%. It also gave a viability, T/C [29] of 15.4% and a viability, T/C [30] of 13.2%.

`CN(C)C/C=C/C(=O)Nc1cc2c(Nc3ccc(F)c(Cl)c3)ncnc2cc1O[C@H]1CCOC1` + COc1cc2nc(C)nc(NC(C)c3cc(N)cc(C(F)(F)F)c3)c2cc1OC1CCOC1 gave an IC50 (second compound 0.1 µM) greater than 100 nM, an IC50 (second compound 0.316 µM) greater than 100 nM and an IC50 (second compound 1 µM) greater than 100 nM. For the same compound, the IC50 (second compound 3.16 µM) was 30.4 nM, the IC50 (second compound 10 µM) was 1.18 nM and the viability, T/C [31] was 94%. The viability, T/C [32] was 91.5%, the viability, T/C [33] was 84.8% and the viability, T/C [34] was 88.7%. For the same compound, the viability, T/C [1] was 85.4%, the viability, T/C [2] was 74.5% and the viability, T/C [35] was 87.5%. For the same compound, the viability, T/C [36] was 74.7%, the viability, T/C [37] was 72.7% and the viability, T/C [38] was 73.5%. It also gave a viability, T/C [7] of 66.1%, a viability, T/C [8] of 58.1% and a viability, T/C [39] of 87%. The viability, T/C [40] was 82.2%, the viability, T/C [41] was 83.7% and the viability, T/C [42] was 86.8%. The viability, T/C [13] was 84.9%, the viability, T/C [14] was 75.2% and the viability, T/C [43] was 62.8%. It also gave a viability, T/C [44] of 46.8%, a viability, T/C [45] of 57% and a viability, T/C [46] of 54.9%. For the same compound, the viability, T/C [19] was 52.5%, the viability, T/C [20] was 44.5% and the viability, T/C [47] was 50%. For the same compound, the viability, T/C [48] was 52.2%, the viability, T/C [49] was 50.7% and the viability, T/C [50] was 45.5%. For the same compound, the viability, T/C [25] was 45.6% and the viability, T/C [26] was 47.8%.

`Cn1nccc1Nc1nccc(-c2cc3c(s2)C(C)(C)N(CCN2CCOCC2)C3=O)n1` + C=CC(=O)N1CCN(c2nc(=O)n(-c3c(C)ccnc3C(C)C)c3nc(-c4c(O)cccc4F)c(F)cc23)C(C)C1 was tested, and the IC50 (second compound 0.1 µM) was 122 nM, the IC50 (second compound 0.316 µM) was 131 nM and the IC50 (second compound 1 µM) was 111 nM. It also gave an IC50 (second compound 3.16 µM) of 77.7 nM, an IC50 (second compound 10 µM) of less than 31.6 nM and a viability, T/C [1] of 95.1%. The viability, T/C [2] was 55.6%, the viability, T/C [3] was 23.7% and the viability, T/C [4] was 12.3%. The viability, T/C [5] was 11.2%, the viability, T/C [6] was 11.1% and the viability, T/C [7] was 107%. The viability, T/C [8] was 58.5%, the viability, T/C [9] was 21.9% and the viability, T/C [10] was 13.7%. It also gave a viability, T/C [11] of 12.4%, a viability, T/C [12] of 12.6% and a viability, T/C [13] of 115%. For the same compound, the viability, T/C [14] was 52.7%, the viability, T/C [15] was 22.5% and the viability, T/C [16] was 15.2%. For the same compound, the viability, T/C [17] was 12.5%, the viability, T/C [18] was 14.4% and the viability, T/C [19] was 76.6%. It also gave a viability, T/C [20] of 42.5%, a viability, T/C [21] of 19.2% and a viability, T/C [22] of 14.3%. For the same compound, the viability, T/C [23] was 13.8%, the viability, T/C [24] was 17.2% and the viability, T/C [25] was 25.2%. The viability, T/C [26] was 18%, the viability, T/C [27] was 14.6% and the viability, T/C [28] was 14.4%. For the same compound, the viability, T/C [29] was 15.1% and the viability, T/C [30] was 19.5%.

`CC(=O)Nc1cccc(-n2c(=O)n(C3CC3)c(=O)c3c(Nc4ccc(I)cc4F)n(C)c(=O)c(C)c32)c1` + C=CC(=O)N1CCN(c2nc(=O)n(-c3c(C)ccnc3C(C)C)c3nc(-c4c(O)cccc4F)c(F)cc23)C(C)C1 was tested, and the IC50 (second compound 0.1 µM) was 0.34 nM, the IC50 (second compound 0.316 µM) was 0.468 nM and the IC50 (second compound 1 µM) was 0.395 nM. For the same compound, the IC50 (second compound 3.16 µM) was 0.235 nM, the IC50 (second compound 10 µM) was less than 0.1 nM and the viability, T/C (second compound 0.1 µM, first compound 0.0001 µM) was 90%. The viability, T/C [31] was 51.6%, the viability, T/C [32] was 27.4% and the viability, T/C [33] was 18.7%. The viability, T/C [34] was 12.8%, the viability, T/C [1] was 7.68% and the viability, T/C (second compound 0.316 µM, first compound 0.0001 µM) was 92%. It also gave a viability, T/C [35] of 60.1%, a viability, T/C [36] of 30.3% and a viability, T/C [37] of 18.9%. For the same compound, the viability, T/C [38] was 11.9%, the viability, T/C [7] was 7.86% and the viability, T/C (second compound 1 µM, first compound 0.0001 µM) was 86.9%. It also gave a viability, T/C [39] of 54.4%, a viability, T/C [40] of 31.9% and a viability, T/C [41] of 19.6%. It also gave a viability, T/C [42] of 12.1%, a viability, T/C [13] of 8.24% and a viability, T/C (second compound 3.16 µM, first compound 0.0001 µM) of 62.1%. The viability, T/C [43] was 46.4%, the viability, T/C [44] was 26.8% and the viability, T/C [45] was 17.5%. For the same compound, the viability, T/C [46] was 11.5%, the viability, T/C [19] was 9.06% and the viability, T/C (second compound 10 µM, first compound 0.0001 µM) was 23%. For the same compound, the viability, T/C [47] was 19.9%, the viability, T/C [48] was 10.9% and the viability, T/C [49] was 11.7%. It also gave a viability, T/C [50] of 9.79% and a viability, T/C [25] of 9.65%.

`Cn1nccc1Nc1nccc(-c2cc3c(s2)C(C)(C)N(CCN2CCOCC2)C3=O)n1` + CC1OCC2(CCN(c3cnc(Sc4ccnc(N)c4Cl)c(N)n3)CC2)C1N was tested, and the IC50 (second compound 0.1 µM) was 39.3 nM, the IC50 (second compound 0.316 µM) was less than 31.6 nM and the IC50 (second compound 1 µM) was less than 31.6 nM. The IC50 (second compound 3.16 µM) was less than 31.6 nM, the IC50 (second compound 10 µM) was less than 31.6 nM and the viability, T/C [1] was 54.5%. For the same compound, the viability, T/C [2] was 30.8%, the viability, T/C [3] was 19.1% and the viability, T/C [4] was 11.7%. For the same compound, the viability, T/C [5] was 10.5%, the viability, T/C [6] was 11.7% and the viability, T/C [7] was 37.1%. It also gave a viability, T/C [8] of 25.7%, a viability, T/C [9] of 12.6% and a viability, T/C [10] of 10.9%. For the same compound, the viability, T/C [11] was 8.88%, the viability, T/C [12] was 9.52% and the viability, T/C [13] was 33.9%. It also gave a viability, T/C [14] of 21%, a viability, T/C [15] of 13.1% and a viability, T/C [16] of 9.76%. For the same compound, the viability, T/C [17] was 8.56%, the viability, T/C [18] was 9.6% and the viability, T/C [19] was 26.3%. For the same compound, the viability, T/C [20] was 19.7%, the viability, T/C [21] was 12.6% and the viability, T/C [22] was 8.37%. It also gave a viability, T/C [23] of 8.01%, a viability, T/C [24] of 8.06% and a viability, T/C [25] of 24.1%. It also gave a viability, T/C [26] of 17.6%, a viability, T/C [27] of 11% and a viability, T/C [28] of 8.12%. It also gave a viability, T/C [29] of 6.93% and a viability, T/C [30] of 7.35%.
